Source: patent publication EP4759817A1, “HETEROARYL COMPOUND, PREPARATION METHOD THEREFOR, AND USE THEREOF IN MEDICINE” (Jiangsu Hengrui Pharmaceuticals Co., Ltd., priority 2023, dated 2025)

Tests used:
HCT116 MTAP-/- cells = assay: HCT116 MTAP-/- cell proliferation assay (CellTiter-Glo, 10 days); format: cell-based; details: growth inhibition, CTG assay Day 10
Description: (§1) • I. Experimental materials and instruments • 1. HCT116 cell line (Nanjing Kebai Biotechnology Co., Ltd., CBP60028) • 2. HCT116 MTAP-/- cell line (Nanjing Kebai Biotechnology Co., Ltd., CBP75002) • 3. DMSO (Sigma, D2650) • 4. McCoy's 5A medium (Gibco, 16600-082) • 5. Foetal bovine serum (FBS) (Gibco, 10091148) • 6. Phosphate buffered saline (DPBS) pH 7.4 (Gibco, 14190-144) • 7. Pen strep (PS) (Gibco, 15140-122) • 8. 0.25% Typsin-EDTA (1×) (Gibco, 25200-072) • 9. CellTiter-Glo® Luminescent Cell Viability Assay (Promega, G7572) • 10. 96-well round-bottom plate (JET, TCP002096) • 11. 96-well black clear bottom plate (Hangzhou Xinyou Biotechnology Co., Ltd., 060096) • 12. 1.2 mL 96-well deep well plate, clear, sterile, square-well, V-bottom (Titan, 02089063) • 13. 15-mL centrifuge tube (Titan) • 14. Biosafety cabinet (Thermo, 1300AII) • 15. Cell counter (Countstar, IC1000) • 16. Incubator (Thermo, I160) • 17. Centrifuge (Beckman coulter, Allegra X-12 centrifuge) • 18. PHERAstar FS microplate reader (BMG Labtech) • II. Experimental procedure • 1. Cell plating (Day 0) • a) The cell morphology was observed under a microscope to ensure confluence reached approximately 90%. • b) The cell supernatant was aspirated, the cells were washed once with PBS, and then the PBS was removed; and the cells were digested by adding an appropriate amount of trypsin, and left to stand at 37°C for 3 minutes. • c) The digestion was terminated by adding an equal volume of McCoy's 5A medium containing 10% FBS, and the cell suspension was collected and centrifuged at 300 g for 3 minutes; and the cells were resuspended in an appropriate amount of fresh medium. • d) The resuspended cell suspension was taken for counting. • e) The cell suspension was diluted to 1e4/mL using McCoy's 5A medium containing 10% FBS, and seeded at 50 µL per well, corresponding to 500 cells/well for HCT116 and 500 cells/well for HCT116 MTAP-/-. • f) The cell plate was placed in a 37°C, 5% carbon dioxide incubator and incubated overnight. • 2. Compound treatment (Day 1) • a) Each compound was serially diluted in DMSO to generate a 9-point concentration gradient (starting concentration: 10000 µM, 3-fold dilution; the highest concentration may be adjusted individually based on IC50 of different compounds); for example, in a 96-well round-bottom compound-dilution plate, 5 µL of the compound was sequentially diluted into 10 µL of DMSO. • b) Each concentration point of every compound was then diluted 250-fold into the corresponding volume of McCoy's 5A medium. • c) To each cell plate, 50 µL of the diluted compound solution as described above was added sequentially to the cell supernatant (50 µL/well). • d) The compound-treated cell plate was placed in a 37°C, 5% carbon dioxide incubator and incubated. • 3. Re-digestion, re-plating and compound treatment (Day 5) • a) After 5 days of compound treatment, the compound-containing medium was aspirated, and the cells were rinsed once with PBS (100 µL/well); and the PBS was removed immediately. • b) The cells were digested by adding 25 µL of trypsin and incubated at 37°C for 3 minutes, and then the digestion was terminated by adding 175 µL/well of McCoy's 5A medium containing 10% FBS. • c) The cells were mixed thoroughly using a pipette, and re-plated at 1 : 20; and specifically, 10 µL of the cell suspension was aspirated to a new 96-well plate (pre-filled with 40 µL of McCoy's 5A medium containing 10% FBS. • d) Compounds were prepared and added according to steps a) to c) in Section 2, with 50 µL added per well. • e) The compound-treated cell plate was placed in a 37°C, 5% carbon dioxide incubator and incubated. • 4. […]

HCT116 cells = assay: HCT116 cell proliferation assay (CellTiter-Glo, 10 days); format: cell-based; details: growth inhibition, CTG assay Day 10
Description: as §1, with “3.” for “3. Re-digestion, re-plating and compound treatment (Day 5) • a) After 5 days of compound treatment, the compound-containing medium was aspirated, and the cells were rinsed once with PBS (100 µL/well); and the PBS was removed immediately. • b) The cells were digested by adding 25 µL of trypsin and incubated at 37°C for 3 minutes, and then the digestion was terminated by adding 175 µL/well of McCoy's 5A medium containing 10% FBS. • c) The cells were mixed thoroughly using a pipette, and re-plated at 1 : 20; and specifically, 10 µL of the cell suspension was aspirated to a new 96-well plate (pre-filled with 40 µL of McCoy's 5A medium containing 10% FBS. • d) Compounds were prepared and added according to steps a) to c) in Section 2, with 50 µL added per well. • e) The compound-treated cell plate was placed in a 37°C, 5% carbon dioxide incubator and incubated. • 4.”

[1] = target: T1, Recombinant human PRMT5: MEP50 protein (Homo sapiens, UniProt O14744); assay: Inhibitory activity against human PRMT5 enzymatic activity (HTRF quantification of SAH, +MTA); format: biochemical; details: +1 µM MTA; histone H4 peptide substrate (1-21), SAM; 37°C 120 min
T1 construct: purchased active motif 31521
T1 sequence (O14744 whole entry): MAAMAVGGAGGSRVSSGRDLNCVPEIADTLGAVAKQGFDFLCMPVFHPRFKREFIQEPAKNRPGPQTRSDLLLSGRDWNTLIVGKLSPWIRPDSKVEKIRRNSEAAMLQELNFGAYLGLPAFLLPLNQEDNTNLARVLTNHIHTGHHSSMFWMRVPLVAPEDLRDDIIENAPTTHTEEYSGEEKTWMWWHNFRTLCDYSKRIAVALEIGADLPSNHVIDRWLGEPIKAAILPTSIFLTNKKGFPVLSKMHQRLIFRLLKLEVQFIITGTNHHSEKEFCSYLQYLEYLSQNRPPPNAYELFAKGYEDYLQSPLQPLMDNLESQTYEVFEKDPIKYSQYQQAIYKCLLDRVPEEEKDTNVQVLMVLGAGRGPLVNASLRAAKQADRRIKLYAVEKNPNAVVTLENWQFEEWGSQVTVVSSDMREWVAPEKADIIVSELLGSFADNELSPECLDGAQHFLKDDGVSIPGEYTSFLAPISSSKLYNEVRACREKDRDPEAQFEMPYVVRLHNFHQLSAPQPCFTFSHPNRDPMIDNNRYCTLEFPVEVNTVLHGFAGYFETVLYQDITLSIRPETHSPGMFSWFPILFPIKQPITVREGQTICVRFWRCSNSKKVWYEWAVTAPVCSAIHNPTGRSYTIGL
T1 sequence (Q9BQA1 whole entry partner): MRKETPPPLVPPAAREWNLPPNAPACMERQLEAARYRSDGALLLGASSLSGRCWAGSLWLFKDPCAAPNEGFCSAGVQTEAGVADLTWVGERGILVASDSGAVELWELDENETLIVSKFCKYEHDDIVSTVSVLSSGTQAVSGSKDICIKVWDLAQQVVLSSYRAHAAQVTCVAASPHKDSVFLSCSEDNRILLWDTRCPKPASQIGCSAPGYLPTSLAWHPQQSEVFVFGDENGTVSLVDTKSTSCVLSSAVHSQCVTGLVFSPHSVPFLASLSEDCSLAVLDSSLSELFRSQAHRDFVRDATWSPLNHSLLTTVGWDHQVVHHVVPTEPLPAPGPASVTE
Experimental: • 1. Recombinant human PRMT5: MEP50 protein (active motif, 31521) • 2. EPIgeneous Methyltransferase kit (cisbio, 62SAHPEH) • 3. 96-well plate (Sangon Biotech, F610960-0010) • 4. 384-well white plate (Perkin Elmer, 6007290) • 5. 1 M Tris-HCl [pH 8.5] (Sangon Biotech, B548141) • 6. Histone H4 peptide substrates (1-21) (BPS bioscience, 52014) • 7. 5'-deoxy-5'-(methylthio)adenosine (Aladdin, D168979-25 mg) • 8. Tween-20 (Sangon Biotech, A100777-0500) • 9. DMSO (Sigma, D2650) • 10. Incubator (Shanghai Boxun Medical Biological Instrument Corp.) • 11. PHERAstar FS microplate reader (BMG Labtech)
PRMT5 can induce the transfer of a methyl group from S-adenosylmethionine (SAM) to a histone H4 peptide substrate (1-21), generating S-adenosylhomocysteine (SAH). In this experiment, the amount of SAH produced in the reaction is quantified using a Homogeneous Time-Resolved Fluorescence (HTRF) method to evaluate the inhibitory activity of compounds against PRMT5 enzymatic activity.
The sample diluent containing (or not containing) 1 µM 5 '-deoxy-5' - (methylthiyl) adenosine (MTA) was prepared using the EPIgeneous Diluent Buffer from the EPIgeneous Methyltransferase kit. With reference to the instructions, SAM and SAH standards were serially diluted and dispensed at 10 µL per well (in duplicate for each concentration). 2 µL of EPIgeneous Detection Buffer 1 was added to each well, and the plate was centrifuged, shaken to mix thoroughly, and placed at room temperature for 10 min. The SAH d2 Reagent was diluted 32-fold with EPIgeneous Detection Buffer 2, and 4 µL of the diluted SAH-d2 solution was added to each well. The plate was centrifuged and shaken for 2 min to mix thoroughly. The SAH Tb Cryptate Antibody was diluted 50-fold in EPIgeneous Detection Buffer 2. 4 µL of the diluted Tb Cryptate Antibody solution was added to each well, and the plate was centrifuged, shaken for 2 min to mix thoroughly, and left to stand at room temperature for 60 min, followed by reading on a PHERAstar FS microplate reader to obtain the 665/620 ratio. Plotting SAH concentration against the ratio to generate an x-y curve yields a corresponding calculation formula.
Reaction buffer (1×): 50 mM Tris-HCl [pH 8.5], 1 mM DTT, 0.005% Tween-20.
Compound preparation: a 20 mM solution of test compound in 100% DMSO was diluted in 100% DMSO to 1 mM as the highest concentration, and the solution at this concentration was then subjected to a 10-point, 3-fold serial dilution in 100% DMSO in a 96-well plate. Wells containing 100% DMSO served as the blank control. The above-described serially diluted compounds and the 100% DMSO were diluted 20-fold with the reaction buffer to prepare 5× compound solutions, which were mixed thoroughly for use.
The PRMT5:MEP50 was diluted in the reaction buffer to a final concentration of 12.5 nM. Then, 4 µL of the 12.5 nM PRMT5:MEP50 solution was added to each well of a 384-well plate. Wells containing 4 µL of the reaction buffer served as the negative control wells. 2 µL of the 5× compound solution was added to each well. For the negative control wells (no enzyme, no compound) and the positive control wells (no compound), 2 µL of 5% DMSO was added. The plate was sealed with a membrane, centrifuged, shaken for 2 min to mix thoroughly, and placed at room temperature for 20 min.
Preparation of substrate mixture solution: The substrate mixture solution containing 1.5 µM histone H4 peptide substrate (1-21) and 2.5 µM SAM, or 1.5 µM histone H4 peptide substrate (1-21), 2.5 µM SAM and 2.5 µM MTA was prepared in the reaction buffer.
The reaction was initiated by adding 4 µL of the substrate mixture solution (-/+ MTA) to each well. The plate was sealed with a membrane, centrifuged, shaken for 2 min to mix thoroughly, and incubated at 37°C for 120 min in a constant temperature incubator.
Detection: The detection was performed by using the EPIgeneous Methyltransferase kit. […]

Row | IC50 (HCT116 MTAP-/- cells) | IC50 (HCT116 cells) | IC50 [1] | IC50 (HCT116 MTAP-/- cells; Homo sapiens, HCT-116, 240 h) | IC50 (HCT116 cells; Homo sapiens, HCT-116, 240 h) | Compound
1 | 13.3 nM | 2350 nM | – | – | – | Cn1ncc(-c2ccc3c(=O)[nH]nc(CN)c3c2)c1-c1c(F)cc2c(c1C#N)O[C@@H]1CC[C@@H]1O2 (atropisomer, axis not shown; (M)) [Compound 1-p2, (M)-(2aR,8aS)-5-(4-(4-(aminomethyl)-1-oxo-1,2-dihydrophthalazin-6-yl)-1-methyl-1H-pyrazol-5-yl)-6-fluoro-1,2,2a,8a-tetrahydrobenzo[b]cyclobuta[e][1,4]dioxine-4-carbonitrile]
2 | – | – | 2.8 nM | 15 nM | – | [2H]C([2H])([2H])n1ncc(-c2ccc3c(=O)[nH]nc(CN)c3c2)c1-c1c(F)c(Cl)c2c(c1C#N)N1CCC[C@H]1CO2 (atropisomer, axis not shown; (M)) [Compound 13-p1, (M)-(S)-8-(4-(4-(aminomethyl)-1-oxo-1,2-dihydrophthalazin-6-yl)-1-(methyl-d3)-1H-pyrazol-5-yl)-6-chloro-7-fluoro-2,3,3a,4-tetrahydro-1H-benzo[b]pyrrolo[1,2-d][1,4]oxazine-9-carbonitrile]
3 | – | – | 7.01 nM | 13.5 nM | 2370 nM | [2H]C([2H])([2H])n1ncc(-c2ccc3c(=O)[nH]nc(CN)c3c2)c1-c1c(F)cc2c(c1C#N)O[C@@H]1CC[C@@H]1O2 (single isomer, unassigned) [Compound 2-p2]
